Test: (§1) The drug is tested on Z-028 corresponding to mouse gut metagenome with ENA study accession number: PRJEB37062 and ENA sample accession number: ERS12561827 for biotransformation under anaerobic condition. The drug concentrations were measured over 9 timepoints collected between 0 and 24 hours of incubation by liquid-chromatography-coupled mass spectrometry (LC–MS)
Settings: 2 µM
Note: call rule not given here.

| Bacterial Biotransformation | Compound |
| --- | --- |
| Compound NOT metabolized | O=C(CCCN1CCC(O)(c2ccc(Cl)cc2)CC1)c1ccc(F)cc1 [HALOPERIDOL] |
| Compound metabolized | COc1ccc2[nH]c([S+]([O-])Cc3ncc(C)c(OC)c3C)nc2c1 (stereo not given) [OMEPRAZOLE] |

Test: as §1, with “Z-027” for “Z-028”, “to” for “to mouse gut”, “ERS12561826” for “ERS12561827”
Settings: 2 µM

| Bacterial Biotransformation | Compound |
| --- | --- |
| Compound NOT metabolized | O=C(CCCN1CCC(O)(c2ccc(Cl)cc2)CC1)c1ccc(F)cc1 [HALOPERIDOL] |
| Compound metabolized | COc1ccc2[nH]c([S+]([O-])Cc3ncc(C)c(OC)c3C)nc2c1 (stereo not given) [OMEPRAZOLE] |

Test: as §1, with “Z-024” for “Z-028”, “pig” for “mouse”, “ERS12561823” for “ERS12561827”
Settings: 2 µM

| Bacterial Biotransformation | Compound |
| --- | --- |
| Compound NOT metabolized | O=C(CCCN1CCC(O)(c2ccc(Cl)cc2)CC1)c1ccc(F)cc1 [HALOPERIDOL] |
| Compound NOT metabolized | COc1ccc2[nH]c([S+]([O-])Cc3ncc(C)c(OC)c3C)nc2c1 (stereo not given) [OMEPRAZOLE] |

Test: as §1, with “Z-020” for “Z-028”, “rabbit” for “mouse”, “ERS12561819” for “ERS12561827”
Settings: 2 µM

| Bacterial Biotransformation | Compound |
| --- | --- |
| Compound NOT metabolized | O=C(CCCN1CCC(O)(c2ccc(Cl)cc2)CC1)c1ccc(F)cc1 [HALOPERIDOL] |
| Compound NOT metabolized | COc1ccc2[nH]c([S+]([O-])Cc3ncc(C)c(OC)c3C)nc2c1 (stereo not given) [OMEPRAZOLE] |

Test: as §1, with “Z-013” for “Z-028”, “rabbit” for “mouse”, “ERS12561813” for “ERS12561827”
Settings: 2 µM

| Bacterial Biotransformation | Compound |
| --- | --- |
| Compound NOT metabolized | O=C(CCCN1CCC(O)(c2ccc(Cl)cc2)CC1)c1ccc(F)cc1 [HALOPERIDOL] |
| Compound NOT metabolized | COc1ccc2[nH]c([S+]([O-])Cc3ncc(C)c(OC)c3C)nc2c1 (stereo not given) [OMEPRAZOLE] |

Test: as §1, with “Z-009” for “Z-028”, “pig” for “mouse”, “ERS12561809” for “ERS12561827”
Settings: 2 µM

| Bacterial Biotransformation | Compound |
| --- | --- |
| Compound metabolized | O=C(CCCN1CCC(O)(c2ccc(Cl)cc2)CC1)c1ccc(F)cc1 [HALOPERIDOL] |
| Compound NOT metabolized | COc1ccc2[nH]c([S+]([O-])Cc3ncc(C)c(OC)c3C)nc2c1 (stereo not given) [OMEPRAZOLE] |

Test: as §1, with “Z-007” for “Z-028”, “rat” for “mouse”, “ERS12561807” for “ERS12561827”
Settings: 2 µM

| Bacterial Biotransformation | Compound |
| --- | --- |
| Compound NOT metabolized | O=C(CCCN1CCC(O)(c2ccc(Cl)cc2)CC1)c1ccc(F)cc1 [HALOPERIDOL] |
| Compound NOT metabolized | COc1ccc2[nH]c([S+]([O-])Cc3ncc(C)c(OC)c3C)nc2c1 (stereo not given) [OMEPRAZOLE] |

Test: as §1, with “Z-001” for “Z-028”, “ERS12561801” for “ERS12561827”
Settings: 2 µM

| Bacterial Biotransformation | Compound |
| --- | --- |
| Compound NOT metabolized | O=C(CCCN1CCC(O)(c2ccc(Cl)cc2)CC1)c1ccc(F)cc1 [HALOPERIDOL] |
| Compound NOT metabolized | COc1ccc2[nH]c([S+]([O-])Cc3ncc(C)c(OC)c3C)nc2c1 (stereo not given) [OMEPRAZOLE] |

Test: as §1, with “WLS-082” for “Z-028”, “human” for “mouse”, “ERS12561751” for “ERS12561827”
Settings: 2 µM

| Bacterial Biotransformation | Compound |
| --- | --- |
| Compound metabolized | O=C(CCCN1CCC(O)(c2ccc(Cl)cc2)CC1)c1ccc(F)cc1 [HALOPERIDOL] |
| Compound metabolized | COc1ccc2[nH]c([S+]([O-])Cc3ncc(C)c(OC)c3C)nc2c1 (stereo not given) [OMEPRAZOLE] |

Test: as §1, with “WLS-006” for “Z-028”, “human” for “mouse”, “ERS12561741” for “ERS12561827”
Settings: 2 µM

| Bacterial Biotransformation | Compound |
| --- | --- |
| Compound metabolized | O=C(CCCN1CCC(O)(c2ccc(Cl)cc2)CC1)c1ccc(F)cc1 [HALOPERIDOL] |
| Compound metabolized | COc1ccc2[nH]c([S+]([O-])Cc3ncc(C)c(OC)c3C)nc2c1 (stereo not given) [OMEPRAZOLE] |

Settings: human gut metagenome, 24 h, 2 µM

| Bacterial Biotransformation | Compound |
| --- | --- |
| Compound NOT metabolized | O=C(CCCN1CCC(O)(c2ccc(Cl)cc2)CC1)c1ccc(F)cc1 [HALOPERIDOL] |
| Compound metabolized | COc1ccc2[nH]c([S+]([O-])Cc3ncc(C)c(OC)c3C)nc2c1 (stereo not given) [OMEPRAZOLE] |

Settings: human gut metagenome, 24 h, 2 µM
Remark: another data set of the same source

| Bacterial Biotransformation | Compound |
| --- | --- |
| Compound NOT metabolized | O=C(CCCN1CCC(O)(c2ccc(Cl)cc2)CC1)c1ccc(F)cc1 [HALOPERIDOL] |
| Compound metabolized | COc1ccc2[nH]c([S+]([O-])Cc3ncc(C)c(OC)c3C)nc2c1 (stereo not given) [OMEPRAZOLE] |

Settings: human gut metagenome, 24 h, 2 µM
Remark: another data set of the same source

| Bacterial Biotransformation | Compound |
| --- | --- |
| Compound NOT metabolized | O=C(CCCN1CCC(O)(c2ccc(Cl)cc2)CC1)c1ccc(F)cc1 [HALOPERIDOL] |
| Compound metabolized | COc1ccc2[nH]c([S+]([O-])Cc3ncc(C)c(OC)c3C)nc2c1 (stereo not given) [OMEPRAZOLE] |

Settings: human gut metagenome, 24 h, 2 µM
Remark: another data set of the same source

| Bacterial Biotransformation | Compound |
| --- | --- |
| Compound metabolized | O=C(CCCN1CCC(O)(c2ccc(Cl)cc2)CC1)c1ccc(F)cc1 [HALOPERIDOL] |
| Compound metabolized | COc1ccc2[nH]c([S+]([O-])Cc3ncc(C)c(OC)c3C)nc2c1 (stereo not given) [OMEPRAZOLE] |

Settings: human gut metagenome, 24 h, 2 µM
Remark: another data set of the same source

| Bacterial Biotransformation | Compound |
| --- | --- |
| Compound metabolized | O=C(CCCN1CCC(O)(c2ccc(Cl)cc2)CC1)c1ccc(F)cc1 [HALOPERIDOL] |
| Compound metabolized | COc1ccc2[nH]c([S+]([O-])Cc3ncc(C)c(OC)c3C)nc2c1 (stereo not given) [OMEPRAZOLE] |

Settings: human gut metagenome, 24 h, 2 µM
Remark: another data set of the same source

| Bacterial Biotransformation | Compound |
| --- | --- |
| Compound NOT metabolized | O=C(CCCN1CCC(O)(c2ccc(Cl)cc2)CC1)c1ccc(F)cc1 [HALOPERIDOL] |
| Compound metabolized | COc1ccc2[nH]c([S+]([O-])Cc3ncc(C)c(OC)c3C)nc2c1 (stereo not given) [OMEPRAZOLE] |

Settings: human gut metagenome, 24 h, 2 µM
Remark: another data set of the same source

| Bacterial Biotransformation | Compound |
| --- | --- |
| Compound metabolized | O=C(CCCN1CCC(O)(c2ccc(Cl)cc2)CC1)c1ccc(F)cc1 [HALOPERIDOL] |
| Compound metabolized | COc1ccc2[nH]c([S+]([O-])Cc3ncc(C)c(OC)c3C)nc2c1 (stereo not given) [OMEPRAZOLE] |

Settings: human gut metagenome, 24 h, 2 µM
Remark: another data set of the same source

| Bacterial Biotransformation | Compound |
| --- | --- |
| Compound NOT metabolized | O=C(CCCN1CCC(O)(c2ccc(Cl)cc2)CC1)c1ccc(F)cc1 [HALOPERIDOL] |
| Compound metabolized | COc1ccc2[nH]c([S+]([O-])Cc3ncc(C)c(OC)c3C)nc2c1 (stereo not given) [OMEPRAZOLE] |

Settings: human gut metagenome, 24 h, 2 µM
Remark: another data set of the same source

| Bacterial Biotransformation | Compound |
| --- | --- |
| Compound metabolized | O=C(CCCN1CCC(O)(c2ccc(Cl)cc2)CC1)c1ccc(F)cc1 [HALOPERIDOL] |
| Compound metabolized | COc1ccc2[nH]c([S+]([O-])Cc3ncc(C)c(OC)c3C)nc2c1 (stereo not given) [OMEPRAZOLE] |

Settings: human gut metagenome, 24 h, 2 µM
Remark: another data set of the same source

| Bacterial Biotransformation | Compound |
| --- | --- |
| Compound NOT metabolized | O=C(CCCN1CCC(O)(c2ccc(Cl)cc2)CC1)c1ccc(F)cc1 [HALOPERIDOL] |
| Compound metabolized | COc1ccc2[nH]c([S+]([O-])Cc3ncc(C)c(OC)c3C)nc2c1 (stereo not given) [OMEPRAZOLE] |

Reference: ChEMBL document CHEMBL5724914, “Linking interpersonal differences in gut microbiota composition and drug biotransformation activity” (2024)
